Columns and labels:
Assay in all cases: relative viability (nuclei count vs DMSO), 5 days (fraction); higher = more cells survive
Cediranib + Linsitinib = compound: COc1cc2c(Oc3ccc4[nH]c(C)cc4c3F)ncnc2cc1OCCCN1CCCC1 [Cediranib] + C[C@]1(O)C[C@@H](c2nc(-c3ccc4ccc(-c5ccccc5)nc4c3)c3c(N)nccn32)C1 [Linsitinib] (partner 1 µM)
In short: (§1)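 Lung cancer cell lines were pin-tool dosed in 1536-well plates on the day after seeding, with either a lone drug or a fixed anchor-drug dose plus five library-drug doses (not always all listed) in √10 steps. Nuclei were counted on 4× images after 5 days. Relative viability is the ratio of treated-well to vehicle-well nuclei counts, with each value a median of duplicate plates.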

Cediranib + Vorinostat = compound: COc1cc2c(Oc3ccc4[nH]c(C)cc4c3F)ncnc2cc1OCCCN1CCCC1 [Cediranib] + O=C(CCCCCCC(=O)Nc1ccccc1)NO [Vorinostat] (partner 1 µM)
In short: as §1

Halofuginone + Alpelisib = compound: O=C(C[C@H]1NCCC[C@@H]1O)Cn1cnc2cc(Br)c(Cl)cc2c1=O (racemic) [Halofuginone] + Cc1nc(NC(=O)N2CCC[C@H]2C(N)=O)sc1-c1ccnc(C(C)(C)C(F)(F)F)c1 [Alpelisib] (partner 2 µM)
In short: as §1

Halofuginone + Dasatinib = compound: O=C(C[C@H]1NCCC[C@@H]1O)Cn1cnc2cc(Br)c(Cl)cc2c1=O (racemic) [Halofuginone] + Cc1nc(Nc2ncc(C(=O)Nc3c(C)cccc3Cl)s2)cc(N2CCN(CCO)CC2)n1 [Dasatinib] (partner 0.075 µM)
In short: as §1

Cell Line	relative viability (Cediranib + Linsitinib; first compound 0.04 µM)	relative viability (Cediranib + Linsitinib; first compound 0.1265 µM)	relative viability (Cediranib + Linsitinib; first compound 0.4 µM)	relative viability (Cediranib + Linsitinib; first compound 1.265 µM)	relative viability (Cediranib + Linsitinib; first compound 4 µM)	relative viability (Cediranib + Vorinostat; first compound 0.04 µM)	relative viability (Cediranib + Vorinostat; first compound 0.1265 µM)	relative viability (Cediranib + Vorinostat; first compound 0.4 µM)	relative viability (Cediranib + Vorinostat; first compound 1.265 µM)	relative viability (Cediranib + Vorinostat; first compound 4 µM)	relative viability (Halofuginone + Alpelisib; first compound 0.001 µM)	relative viability (Halofuginone + Alpelisib; first compound 0.003162 µM)	relative viability (Halofuginone + Alpelisib; first compound 0.01 µM)	relative viability (Halofuginone + Alpelisib; first compound 0.03162 µM)	relative viability (Halofuginone + Alpelisib; first compound 0.1 µM)	relative viability (Halofuginone + Dasatinib; first compound 0.001 µM)	relative viability (Halofuginone + Dasatinib; first compound 0.003162 µM)	relative viability (Halofuginone + Dasatinib; first compound 0.01 µM)	relative viability (Halofuginone + Dasatinib; first compound 0.03162 µM)	relative viability (Halofuginone + Dasatinib; first compound 0.1 µM)
201T	1.11	1.18	0.941	1.01	0.974	1.08	0.631	0.84	0.973	1.04	1.04	1.01	1.01	0.998	0.841	0.595	0.586	0.572	0.543	0.306
A549	0.723	0.644	0.543	0.633	0.471						0.919	0.765	0.685	0.44	0.15					
A-427	1.17		0.984	1.07	1.17	0.846		0.835	0.853	0.882	1.07	1.14	1.05	0.978	0.94	0.744	0.773	0.678	0.723	0.643
ABC-1	0.656	0.97	0.799		0.786	1.11	0.821	1.14	1.13	1.24	1.2	0.936	1	0.947	1.03	0.586	0.626	0.453	0.476	0.487
BEN	1.16	0.799	0.82	0.9	0.647	0.669	0.445	0.592	0.552	0.588	0.974	1.12	1.1	0.975	0.478	0.345	0.318	0.331	0.36	0.229
CAL-12T	0.95	0.864	0.691	0.865	0.714	0.942	0.808	0.772	0.701	1.05	1.4	1.16	1.03	1.11	1.02	0.685	0.396	0.377	0.282	0.154
COR-L23	1.08	0.871	0.939	0.806	1.14	0.52	0.428	0.412	0.433	0.458	0.808	0.823	0.754	0.635	0.118	0.617	0.481	0.535	0.311	0.083
COR-L 105		0.909	0.946	0.972	0.938	0.921	0.847	0.733	0.766	0.91	1.31	0.934	0.857	0.831	0.629	0.387	0.353	0.316	0.257	0.234
Calu-6	0.881	0.971	0.938	0.854	1.06						1.16	1.01	0.94	0.362	0.17					
ChaGo-K-1						0.719	0.377	0.719	0.757	0.808						0.502	0.602	0.607	0.622	0.6
EBC-1	1.14	1.05	0.882	0.609	0.802						0.939	0.779	0.666	0.441	0.181					
EKVX	1.05	1.03	0.889	1	0.86	0.956	0.534	0.63	0.916	0.697	1.01	0.922	0.862	0.859	0.638	0.522	0.445	0.662	0.605	0.418
EMC-BAC-2	0.872	0.832	0.799	0.777	0.837	0.403		0.407	0.485	0.499	0.765	0.761	0.766	0.723	0.517	0.362	0.343	0.301	0.298	0.163
EPLC-272H	1.17		1.16	1.18	1.29	0.38	0.448	0.401	0.527	0.383	1.04	0.893	0.866	1.02	0.798	0.366	0.427	0.43	0.37	0.274
H3255	1.04	1.04	0.89	0.898	0.912	0.921		0.706		0.735	0.664	0.619	0.558	0.683	0.606	0.429	0.317	0.357	0.328	0.334
HARA	0.916	1.14	0.96	0.955	0.975	0.549	0.315	0.489	0.64	0.519	1.05	0.817	0.836	0.839	0.743	0.273	0.225	0.304	0.276	0.191
HCC-15	0.873		0.793	0.947	1.02	0.814		0.821	0.907	0.916	0.847	0.903	0.861	0.888	0.683	0.645	0.677	0.572	0.593	0.322
HCC-44	0.7		0.636	0.654	0.729	1.14	0.94	1.07	1.1	1.11	0.804	0.774	0.691	0.797	0.433					

From the supplement of paper PMC10307832
